The test system of assay [1] is lipidic peroxidation of rat cerebral cortex homogenate. Briefly: In vitro lipidic peroxidation (Fenton reaction, MDA) in rat cerebral cortex membranes. It is filed as biochemical. The conditions noted are these: iron/ascorbate, read-out: Inhibition of lipidic peroxidation [IC50 (μM)]. How it is done:
The test consists of inducing lipidic peroxidation by Fenton reactions in the presence of iron and ascorbate. The degree of lipidic peroxidation is determined by the concentration of malonaldehyde (MDA). The MDA produced by the lipidic peroxidation of unsaturated fatty acids is a good indicator of lipidic peroxidation (Esterbauer et al, 1990; Meth. Enzymol. 186: 407421). For this colorimetric test, the condensation of a molecule of MDA with two molecules of chromogenic reagent R (N-methyl-2-phenylindole) produces a stable chromophore the maximum absorbance wavelength of which is equal to […].
The membranes are prepared from the cortexes of male Sprague Dawley rats weighing 200 to 250 g. The animals are sacrificed by decapitation and the brains are immediately removed and rinsed in cold Tris HCl 20 mM pH 7.4. The cortexes, after dissection and removal of the white matter, are then ground with the Thomas potter, in Tris HCl buffer 20 mM pH 7.4 at 4° C. The homogenate obtained is centrifuged at low speed in order to eliminate the large debris (515 g for 15 minutes at 4° C.). The supernatant is then distributed into polycarbonate centrifugation tubes and centrifuged at 51500 g for 25 min at 4° C. The membrane pellets are kept at −80° C.
On the day of the experiment, the frozen membranes are resuspended at a concentration of 0.5 equivalent grams of cortex per 5 ml of Tris HCl buffer 20 mM pH 7.4 and homogeneized using a combitips. In 96-well “deep-well” 1 ml polypropylene plates with a conical base, 5 μl per well of the product to be tested or of solvent is mixed with 40 μl of rat cerebral cortex homogenate by centrifugation (800 rpm). The plates are covered with a self-adhesive aluminium sheet and incubated at 37° C. for 15 minutes under agitation. […]
The membranes and the supernatants are separated by filtration under vacuum on a 96-well plate with a multiscreen filtering base NA (Millipore, ref: MANANLY 50). The absorbance of the supernatants recovered in the 96-well plates is read using a photometer.

Assay [2] deals with 8-isoPG1F2α level in rat glial cells C6. Briefly: In situ isoprostane level (8-isoPG1F2α) in C6 cells treated with maitotoxin. Format: cell-based. The conditions noted are these: 3 h, read-out: Inhibition of the isoprostane count in situ (C6) [IC50 (μM)]. How it is done:
8-isoPG1F2α is part of a family of compounds the first synthesis stage of which (peroxidation of arachidonic acid) is carried out in a non-enzymatic manner in the presence of free radicals (Morrow and coll, 1990). Measurement of the 8-iso PGF2α level is considered as a reliable marker of the oxidation stress.
The rat glial cells C6 were seeded at 25 000 cells per well in 96-well plates in DMEM 10% FBS. The next day, 100 μl of product A was placed in the wells. After incubation for 1 hour at 37° C. under an atmosphere of 5% CO2, 10 μl containing maitotoxin is added in order to obtain a final concentration in the well of 1 nM. After incubation for 3 hours, the supernatants are removed and frozen at −20° C. The 8-isoPG1F2α level is measured using a specific EIA dosage kit (Cayman chemical, ref: 516351).

Assay [3] concerns human neuroblastomas SHSY5Y. As to the kind of experiment: Protection from necrosis induced by maitotoxin, SHSY5Y (wst-1 viability). Format: cell-based. To be noted: for Protection from necrosis induced by MTX: SHSY5Y, n=2, 0.1 nM maitotoxin; for Protection from necrosis induced by MTX on SHSY5Y: n = 8, single product at 100 μM. As for the experimental part: (§1) Human neuroblastomas SHSY5Y and rat glial cells C6 are seeded at 25 000 cells per well in 96-well plates in DMEM 10% FBS for 24 hours. The L6 rat myoblasts are seeded at 1000 cells per well in DMEM 10% FBS on 96-well microplates coated beforehand with gelatin 0.5% PBS. After culture for 3 days the medium is removed and replaced with a differentiation medium (DMEM+10 μg/ml of insulin+100 μg/ml of transferrin). 50 μl of product A plus 50 μl of solvent or 50 μl of product B are placed in the wells. After incubation for 1 hour at 37° C. under an atmosphere of 5% CO2, 10 μl of maitotoxin is added in order to obtain a final concentration of 0.1 nM to 1 nM (according to the cell type). After incubation for 3 hours at 37° C. under an atmosphere of 5% CO2, the cell viability is determined by adding 10 μl of tetrazolium salts (wst-1, Roche, ref: 1644807). The tetrazolium salts are cleaved into formazan molecules by mitochondrial dehydrogenases. The quantity of formazan formed is directly correlated to the number of metabolically active cells in the culture. Measurement of the absorbance of the formazan is carried out using a multiwell photometer at a wavelength of 420 nm against a reference wavelength of 620 nm.
(§2) The theoretical effect was obtained by multiplying the percentage of dead cells in the presence of product A by the percentage of dead cells in the presence of product B (Table 3). The percentage protection against cell death induced by MTX being the percentage of cells kept alive in the presence of the product or products.
In a first series of experiments, the concentration of product A in Example 1 is fixed (100 μM), product B is added at concentrations varying from zero to 100 μM (Table 4A). In a second series of experiments, product B of Example 1 is fixed at 100 μM, product A is added at concentrations varying from zero to 100 μM (Table 4B).

For a further assay, the system named is rat glial cells C6. Briefly: Protection from necrosis induced by maitotoxin, C6 (wst-1 viability). Format: cell-based. As for the experimental part:
as §1, §2
In the light of the previous results, the combination of Example 1 with product A and product B at a rate of 100 μM of each of the products is carried out on human neuroblastomas (SHSY5Y; (Table 5A) and on glial cells with 25 μM of product A and 50 μM of product B (C6; Table 5B) on a larger number of cases.

For the next assay, the target named is T1, human calpain I (Homo sapiens, UniProt P07384).
T1 construct: enzyme purified from human erythrocytes; purchased Calbiochem 208713; host or cells: human erythrocytes (native tissue source)
T1 sequence (P07384 1-714): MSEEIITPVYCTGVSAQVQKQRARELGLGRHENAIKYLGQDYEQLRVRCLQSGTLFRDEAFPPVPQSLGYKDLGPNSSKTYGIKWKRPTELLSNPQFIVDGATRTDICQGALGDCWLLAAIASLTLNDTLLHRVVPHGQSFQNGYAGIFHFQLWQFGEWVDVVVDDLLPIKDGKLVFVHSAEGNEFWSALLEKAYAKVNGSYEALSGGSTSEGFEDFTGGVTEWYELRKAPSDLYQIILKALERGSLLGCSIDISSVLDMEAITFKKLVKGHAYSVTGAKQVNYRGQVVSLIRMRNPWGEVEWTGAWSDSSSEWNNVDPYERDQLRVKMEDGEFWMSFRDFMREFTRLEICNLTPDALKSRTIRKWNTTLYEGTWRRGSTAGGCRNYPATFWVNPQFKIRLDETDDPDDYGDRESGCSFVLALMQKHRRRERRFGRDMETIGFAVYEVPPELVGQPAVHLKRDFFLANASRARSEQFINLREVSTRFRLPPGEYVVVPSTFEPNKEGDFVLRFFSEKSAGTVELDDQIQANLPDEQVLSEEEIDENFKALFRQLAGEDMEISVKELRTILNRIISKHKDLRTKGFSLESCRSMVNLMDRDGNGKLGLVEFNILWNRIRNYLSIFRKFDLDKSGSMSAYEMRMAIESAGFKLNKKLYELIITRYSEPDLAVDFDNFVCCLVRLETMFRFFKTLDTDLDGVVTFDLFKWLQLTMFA
T1 sequence (P04632 1-268 partner): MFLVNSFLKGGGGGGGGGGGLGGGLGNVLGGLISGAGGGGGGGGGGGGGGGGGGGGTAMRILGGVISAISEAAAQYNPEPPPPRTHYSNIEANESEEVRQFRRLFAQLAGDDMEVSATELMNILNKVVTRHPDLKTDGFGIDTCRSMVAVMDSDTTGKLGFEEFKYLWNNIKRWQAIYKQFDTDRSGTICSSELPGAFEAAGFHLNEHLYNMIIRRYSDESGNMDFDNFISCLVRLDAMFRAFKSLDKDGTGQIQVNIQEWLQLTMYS
Briefly: Effects on human calpain I (acellular, Suc-Leu-Tyr-AMC fluorescence). Format: biochemical. The conditions noted are these: enzyme purified from human erythrocytes; 1 h at 25°C; read-out: Inhibition human calpain I, acellular [IC50 (nM)]. How it is done:
The test consists of measuring the activity of the enzyme (enzyme purified from human erythrocytes) which is incubated in a buffer in the presence of a peptide substrate coupled with a fluorochrome (amino-methylcourmarin, AMC) and calcium. The enzyme activated by the calcium, proteolyses the substrate and releases the AMC fragment. The AMC released fluoresces at 460 nm under excitation at 380 nm. The activity of the enzyme is therefore proportional to the quantity of fluorescence i.e. of free AMC fragment. The fluorescence (380/460 nm) is measured using a multi-well fluorimeter (Victor 2, Wallac).
Assay is carried out in 96-well microplates with transparent bottoms and black walls in which 10 μl per well of substance to be tested in DMSO 10%, 45 μl of reaction mixture containing the human calpain I at 2.2 U/ml (Calbiochem, ref: 208713), the Suc Leu Tyr-AMC substrate (Bachem, ref: I-1355) at 1.1 mM in a buffer (Tris-HCl 110 mM; NaCl 110 mM; EDTA 2.2 mM; EGTA 2.2 mM; mercaptoethanol 1.1 mM) are distributed. The reaction is initiated by adding 45 μl of CaCl2 22mM. To determine the background noise, control wells without calcium are added to the plate (10 μL DMSO 10%+45 μL of buffer with the enzyme and the susbtrate +45 μL H2O). In order to determine the total activity of the enzyme control wells containing no product are added to the plate (10 μL DMSO 10%+45 μL of buffer with the enzyme and the substrate +45 μL of CaCl2 22 mM ). Each concentration of the products (0.1 nM to 10 μM) is tested in duplicate. The plates are shaken and incubation takes place for one hour at 25° C. in darkness. The fluorescence is read at 380/460 nm using the Victor.

The test system of assay [4] is L6 Myoblasts differentiated to myotubes (rat skeletal muscle cells). Briefly: Protection from necrosis induced by maitotoxin, L6 myoblasts differentiated to myotubes. Format: cell-based. The conditions noted are these: single product at 100 μM. How it is done: as §1
The theoretical effect was obtained by multiplying the percentage of dead cells in the presence of product A by the percentage of dead cells in the presence of product B (Table 3). […]

[5] abbreviates: single product at 50 μM, n = 3 for Example 2, else n = 1.
[6] abbreviates: single product at 100 μM, n = 1.

Like-named read-outs stand apart in the source and are kept apart here.

Here are results for three compounds from US20070265208A1, “Association of calpain inhibitors and reactive oxygen species trapping agents” (priority 2000, published 2007).

On to `CC(C)(C)c1cc(C(=O)O)cc(C(C)(C)C)c1O` [EXAMPLE 1 A, 3-5-di-tert-butyl-4-hydroxybenzoic acid], for which the IC50 (usually the concentration that gives 50% inhibition) in assay [1] stood at 3.7 µM; in assay [2] (n = 3, maitotoxin 1 nM), 101 µM. For the same compound, the “Protection from necrosis induced by MTX” value stood at 5.18 ± 1.81% in assay [3] (single compound at 12.5 μM), 7.45 ± 1.65% in assay [3] (single compound at 25 μM), 8.87 ± 0.34% in assay [3] (single compound at 50 μM) and 8.68 ± 0.3% in assay [3] (single compound at 100 μM). For the same compound, the “Protection from necrosis induced by MTX on SHSY5Y” value in assay [3] was 19.48 ± 5.20%; in assay [3] (listed as 3,5-di-tert-butyl-4-hydroxybenzoic acid) it was “less than 20%”. Further, the “Protection from necrosis induced by MTX on C6” value (“Protection … on C6” below) is 21.23% with rat glial cells C6 (single product at 25 μM); roughly 20% with rat glial cells C6 (single product at 25 μM, listed as 3-5-di-tert-butyl-4-hydroxybenzoic acid); 16.17% in the assay with rat glial cells C6 (single product at 25 μM, listed as EXAMPLE 4 A); 12.51% in the assay on rat glial cells C6 (setting [5]); 30.84% with rat glial cells C6 (setting [6]).

As to `CCCC[C@@H](C=O)NC(=O)[C@H](CC(C)C)NC(=O)OCc1ccccc1` [EXAMPLE 3 B], the IC50 at human calpain I was determined as 2.8 nM. For the same compound, the “Protection from necrosis induced by MTX on L6 Myoblasts differentiated to myotubes” value in assay [4] was 5.09%. Further, the “Protection … on C6” value with rat glial cells C6 (setting [5]) turned out to be 13.03%; in the assay with rat glial cells C6 (setting [6]) it was 0.84%.

As to `COc1ccc2c(c1)Nc1ccccc1S2` [EXAMPLE 2 A, 2-methoxy-10H-phenothiazine], the IC50 in assay [1] worked out at 0.19 µM; in assay [2] (Rattus norvegicus, Glial cell), 0.4 µM. In addition, the “Protection from necrosis induced by MTX on L6 Myoblasts differentiated to myotubes” value in assay [4] is 10.94%. Also, the “Protection … on C6” value in the assay with rat glial cells C6 (setting [5]) was 6.56 ± 1.6%; with rat glial cells C6 (single product at 50 μM, n = 3 for Example 2, else n = 1, listed as 2-methoxy-10H-phenothiazine) it was “inactive”; in the assay with rat glial cells C6 (setting [6]) it was 10.45%.
